Experiments:
[1] = tested on: HIV-IIIb; experiment: Test A: Antiviral Assay in MT4 Cells; format: cell-based, HIV-1; conditions: for % inhibition at 0.2 μM: percent inhibition of virus-induced cell killing at 0.2 μM drug concentration; for % inhibition at 0.2 μM / % inhibition at 2 μM: from dose response curve, MT-4 cells, HIV-IIIb, 5 days, values above 100 normalized to 100; for % inhibition at 2 μM: percent inhibition of virus-induced cell killing at 2 μM drug concentration; for inhibition at 0.2 µM / inhibition at 2 µM: Human immunodeficiency virus 1, IIIB, MT4, 120 h; for inhibition at 0.2 µM: read-out: % inhibition at 0.2 μM; for inhibition at 2 µM: read-out: % inhibition at 2 μM
Description: Test A: Antiviral Assay in MT4 Cells
MT-4 cells were next mixed with HIV-IIIb at an m.o.i of 0.003 for 1 hour, after which time 35 μL of virus/cell mixture (2000 cells) was immediately added to each well containing 40 μL of diluted compound. The plates were then incubated at 37° C. for 5 days. […] Cell lysis was carried out by incubating at room temperature for 10 min and then chemiluminescence was read.

[2] = tested on: uninfected MT-4 cells; experiment: Test B: Cytotoxicity Assay; format: cell-based; conditions: same protocol as Test A, 5 days
Outline: (§1)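 Uninfected MT-4 cells (2000 per well) incubated with diluted compound at 37° C. for 5 days, following the antiviral protocol without HIV-IIIb.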

[3] = Test B: Cytotoxicity Assay; format: cell-based; conditions: human, uninfected MT-4 cells, same protocol as Test A
Outline: as §1

| Compound | % inhibition at 0.2 μM [1] [%] | % inhibition at 2 μM [1] [%] | CC50 [2] [µM] | inhibition at 0.2 µM [1] [%] | inhibition at 2 µM [1] [%] | CC50 at 5 days [3] [µM] |
| --- | --- | --- | --- | --- | --- | --- |
| Cn1cc(-c2ccc(-c3ccc(Cl)c4c(NS(C)(=O)=O)nn(C)c34)c([C@H](Cc3cc(F)cc(F)c3)NC(=O)Cn3nc(C(F)(F)F)c4c3C(F)(F)[C@@H]3C[C@H]43)n2)cn1 [Compound 173, N—((S)-1-(3-(4-chloro-1-methyl-3-(methylsulfonamido)-1H-indazol-7-yl)-6-(1-methyl-1H-pyrazol-4-yl)pyridin-2-yl)-2-(3,5-difluorophenyl)ethyl)-2-((3b-S,4aR)-5,5-difluoro-3-(trifluoromethyl)-3b,4,4a,5-tetrahydro-1H-cyclopropa[3,4]cyclopenta[1,2-c]pyrazol-1-yl)acetamide] | 92 | 92 | > 43.7 | – | – | – |
| CCC(O)C#Cc1ccc(-c2ccc(Cl)c3c(NS(C)(=O)=O)nn(C)c23)c([C@H](Cc2cc(F)cc(F)c2)NC(=O)Cn2nc(C(F)(F)F)c3c2C(F)(F)[C@@H]2C[C@H]32)n1 (stereo partly drawn) [Compound 145, N-((1S)-1-(3-(4-chloro-1-methyl-3-(methylsulfonamido)-1H-indazol-7-yl)-6-(3-hydroxypent-1-yn-1-yl)pyridin-2-yl)-2-(3,5-difluorophenyl)ethyl)-2-((3b-S,4aR)-5,5-difluoro-3-(trifluoromethyl)-3b,4,4a,5-tetrahydro-1H-cyclopropa[3,4]cyclopenta[1,2-c]pyrazol-1-yl)acetamide] | 99 | 99 | 8.69 | – | – | – |
| CC(C)(C)C#Cc1ccc(-c2cccn3c(NS(C)(=O)=O)nnc23)c([C@H](Cc2cc(F)cc(F)c2)NC(=O)Cn2nc(C(F)F)c3c2C(F)(F)[C@@H]2C[C@H]32)n1 [Compound 134, 2-((3bS,4aR)-3-(difluoromethyl)-5,5-difluoro-3b,4,4a,5-tetrahydro-1H-cyclopropa[3,4]cyclopenta[1,2-c]pyrazol-1-yl)-N—((S)-2-(3,5-difluorophenyl)-1-(6-(3,3-dimethylbut-1-yn-1-yl)-3-(3-(methylsulfonamido)-[1,2,4]triazolo[4,3-a]pyridin-8-yl)pyridin-2-yl)ethyl)acetamide] | 82 | 83 | 28 | – | – | – |
| Cc1ccc(-c2ccc(C#CC(C)(C)O)nc2[C@H](Cc2cc(F)cc(F)c2)NC(=O)Cn2nc(C(F)F)c3c2C(F)(F)[C@@H]2C[C@H]32)c2c1c(NS(N)(=O)=O)nn2C [Compound 71, 2-((3b-S,4aR)-3-(difluoromethyl)-5,5-difluoro-3b,4,4a,5-tetrahydro-1H-cyclopropa[3,4]cyclopenta[1,2-c]pyrazol-1-yl)-N—((S)-2-(3,5-difluorophenyl)-1-(3-(1,4-dimethyl-3-(sulfamoylamino)-1H-indazol-7-yl)-6-(3-hydroxy-3-methylbut-1-yn-1-yl)pyridin-2-yl)ethyl)acetamide] | 87 | 87 | 9.51 | – | – | – |
| Cn1nc(NS(C)(=O)=O)c2c(Cl)ccc(-c3ccc(-c4ccccn4)nc3[C@H](Cc3cc(F)cc(F)c3)NC(=O)Cn3nc(C(F)(F)F)c4c3C(F)(F)[C@@H]3C[C@H]43)c21 [Compound 172, N—((S)-1-(5-(4-chloro-1-methyl-3-(methylsulfonamido)-1H-indazol-7-yl)-[2,2′-bipyridin]-6-yl)-2-(3,5-difluorophenyl)ethyl)-2-((3b-S,4aR)-5,5-difluoro-3-(trifluoromethyl)-3b,4,4a,5-tetrahydro-1H-cyclopropa[3,4]cyclopenta[1,2-c]pyrazol-1-yl)acetamide] | – | – | 0.061 | – | – | – |
| COc1cc(-c2ccc(Cl)c3c(NS(C)(=O)=O)nn(C)c23)c([C@H](Cc2cc(F)cc(F)c2)NC(=O)Cn2nc(C(F)F)c3c2C(F)(F)[C@@H]2C[C@H]32)nc1C#CC(C)(C)O [Compound 139B, N—((S)-1-(3-(4-chloro-1-methyl-3-(methylsulfonamido)-1H-indazol-7-yl)-6-(3-hydroxy-3-methylbut-1-yn-1-yl)-5-methoxypyridin-2-yl)-2-(3,5-difluorophenyl)ethyl)-2-((3b-S,4aR)-3-(difluoromethyl)-5,5-difluoro-3b,4,4a,5-tetrahydro-1H-cyclopropa[3,4]cyclopenta[1,2-c]pyrazol-1-yl)acetamide] | – | – | – | 94 | 94 | 15.4 |
| Cn1nc(NC(N)=O)c2c(Cl)ccc(-c3ccc(C#CC(C)(C)O)nc3[C@H](Cc3cc(F)cc(F)c3)NC(=O)Cn3nc(C(F)F)c4c3C(F)(F)[C@@H]3C[C@H]43)c21 [Compound 92, N—((S)-1-(3-(4-chloro-1-methyl-3-ureido-1H-indazol-7-yl)-6-(3-hydroxy-3-methylbut-1-yn-1-yl)pyridin-2-yl)-2-(3,5-difluorophenyl)ethyl)-2-((3bS,4aR)-3-(difluoromethyl)-5,5-difluoro-3b,4,4a,5-tetrahydro-1H-cyclopropa[3,4]cyclopenta[1,2-c]pyrazol-1-yl)acetamide] | – | – | – | 100 | 100 | 6.24 |
| Cn1nc(N)c2c(C#N)ccc(-c3ccc(C#CC(C)(C)O)nc3[C@H](Cc3cc(F)cc(F)c3)NC(=O)Cn3nc(C(F)F)c4c3C(F)(F)[C@@H]3C[C@H]43)c21 [Compound 77E, N—((S)-1-(3-(3-amino-4-cyano-1-methyl-1H-indazol-7-yl)-6-(3-hydroxy-3-methylbut-1-yn-1-yl)pyridin-2-yl)-2-(3,5-difluorophenyl)ethyl)-2-((3b-S,4aR)-3-(difluoromethyl)-5,5-difluoro-3b,4,4a,5-tetrahydro-1H-cyclopropa[3,4]cyclopenta[1,2-c]pyrazol-1-yl)acetamide] | – | – | – | 96 | 97 | 11.8 |
| CC(C)(O)C#Cc1ncc(-c2ccc(F)c(C(N)=O)c2)c([C@H](Cc2cc(F)cc(F)c2)NC(=O)Cn2nc(C(F)(F)F)c3c2C(F)(F)[C@@H]2C[C@H]32)n1 [Compound 23B, 5-(4-((S)-1-(2-((3bS,4aR)-5,5-difluoro-3-(trifluoromethyl)-3b,4,4a,5-tetrahydro-1H-cyclopropa[3,4]cyclopenta[1,2-c]pyrazol-1-yl)acetamido)-2-(3,5-difluorophenyl)ethyl)-2-(3-hydroxy-3-methylbut-1-yn-1-yl)pyrimidin-5-yl)-2-fluorobenzamide] | – | – | – | 83 | 88 | 7.62 |
| Cn1nc(NS(N)(=O)=O)c2cccc(-c3ccc(C#CC(C)(C)O)nc3[C@H](Cc3cc(F)cc(F)c3)NC(=O)Cn3nc(C(F)(F)F)c4c3C(F)(F)[C@@H]3C[C@H]43)c21 [Compound 44, 2-((3bS,4aR)-5,5-difluoro-3-(trifluoromethyl)-3b,4,4a,5-tetrahydro-1H-cyclopropa[3,4]cyclopenta[1,2-c]pyrazol-1-yl)-N—((S)-2-(3,5-difluorophenyl)-1-(6-(3-hydroxy-3-methylbut-1-yn-1-yl)-3-(1-methyl-3-(sulfamoylamino)-1H-indazol-7-yl)pyridin-2-yl)ethyl)acetamide] | – | – | – | 94 | 94 | 6.82 |
| Cc1ccc(-c2ccc(C#CC(C)(C)C)nc2[C@H](Cc2cc(F)cc(F)c2)NC(=O)Cn2nc(C(F)F)c3c2C(F)(F)[C@@H]2C[C@H]32)c2nnc(N)n12 [Compound 116A, N—((S)-1-(3-(3-amino-5-methyl-[1,2,4]triazolo[4,3-a]pyridin-8-yl)-6-(3,3-dimethylbut-1-yn-1-yl)pyridin-2-yl)-2-(3,5-difluorophenyl)ethyl)-2-((3b-S,4aR)-3-(difluoromethyl)-5,5-difluoro-3b,4,4a,5-tetrahydro-1H-cyclopropa[3,4]cyclopenta[1,2-c]pyrazol-1-yl)acetamide] | – | – | – | 62 | 93 | 10.5 |
| COc1ccc(-c2ccc(C#CC(C)(C)C)nc2[C@H](Cc2cc(F)cc(F)c2)NC(=O)Cn2nc(C(F)F)c3c2C(F)(F)[C@@H]2C[C@H]32)c2nnc(NS(C)(=O)=O)n12 [Compound 130, 2-((3bS,4aR)-3-(difluoromethyl)-5,5-difluoro-3b,4,4a,5-tetrahydro-1H-cyclopropa[3,4]cyclopenta[1,2-c]pyrazol-1-yl)-N—((S)-2-(3,5-difluorophenyl)-1-(6-(3,3-dimethylbut-1-yn-1-yl)-3-(5-methoxy-3-(methylsulfonamido)-[1,2,4]triazolo[4,3-a]pyridin-8-yl)pyridin-2-yl)ethyl)acetamide] | – | – | – | 80 | 85 | 23.2 |
| Cn1nc(NC(=O)CNC2CC2)c2c(Cl)ccc(-c3ccc(C#CC(C)(C)O)nc3[C@H](Cc3cc(F)cc(F)c3)NC(=O)Cn3nc(C(F)F)c4c3C(F)(F)[C@@H]3C[C@H]43)c21 [Compound 102, N—((S)-1-(3-(4-chloro-3-(2-(cyclopropylamino)acetamido)-1-methyl-1H-indazol-7-yl)-6-(3-hydroxy-3-methylbut-1-yn-1-yl)pyridin-2-yl)-2-(3,5-difluorophenyl)ethyl)-2-((3b-S,4aR)-3-(difluoromethyl)-5,5-difluoro-3b,4,4a,5-tetrahydro-1H-cyclopropa[3,4]cyclopenta[1,2-c]pyrazol-1-yl)acetamide] | – | – | – | 100 | 100 | 5.82 |
